Read-outs that look alike come from different tables or passages of the source.
Legend:
Format in all cases: cell-based
[1] = system: A. baumannii ATCC 1515; assay: Membrane depolarization detected by DiOC2(3); conditions: 1xMIC; 20 μM CCCP; 25 minutes
[2] = system: A. baumannii ATCC 15151; assay: Filamentation with ciprofloxacin and Compound 25 on A. baumannii; conditions: 18 hours
Description: A. baumannii ATCC 15151: […] The culture tubes were incubated for 18 hours at 37° C. After 18 hours incubation, took 3 μL of cells from each well and plated on microscope slide to observe the following: […]

[3] = system: S. aureus; assay: Evolution of resistance in S. aureus over 32 days; conditions: for MIC: Staphylococcus aureus
From the text: Over a period of 32 days, S. aureus cells were exposed to sub-inhibitory concentrations of the indicated compound, norfloxacin, or oxacillin and sub-cultured at the newly emerged, sub-inhibitory concentration.

[4] = system: RecA-GFP fusion protein in E. coli MG1655; assay: Inhibition of norfloxacin-triggered RecA-GFP induction in E. coli MG1655; conditions: for killing of E. coli: PME or norfloxacin 30 minutes, then compound, 3.5 hours; for SOS response (RecA-GFP induction): norfloxacin-triggered, sub-potent Polymixin E to facilitate entry
Description: An increase in DNA damage-induced RecA protein expression is required for identification and repair of DNA lesions. LexA-repressed transcription of a norfloxacin-triggered SOS response was measured by detecting an increase in RecA-GFP fusion protein fluorescence in an E. coli recombinant model. The compounds of the disclosure inhibited RecA-GFP induction and presumably, the concurrent SOS response. Inhibition of RecA-GFP expression correlated with an increase in cell death, most likely as a result of ALD activation. Sub-potent concentrations of Polymixin E were used to facilitate entry of the compounds into cells.
E. coli MG1655 was grown from a glycerol stock by placing a small volume of cells onto a MHA plate. The MHA plate was incubated overnight at 37° C. A single colony was subsequently used to inoculate MHB+10 μg/mL kanamycin to obtain a bacterial broth suspension. This was grown in at 37° C. on a rotary shaking incubator (100 rpm) for 12 hours. The bacterial cell concentration was adjusted to ˜5×10^5 colony forming units per milliliter (CFU/mL) in MHB using optical density at 595 nm. Treated cells with polymyxin E (PME) or norfloxacin (in μg/ml) at indicated concentrations for 30 minutes at 37° C. and then added a compound of the disclosure at indicated micromolar concentrations. Incubated for 3.5 hours at 37° C. Cell samples were read on the flow cytometer to detect (green fluorescent) RLU RecA expression and/or shutdown.
E. coli MG1655 was grown from a glycerol stock by placing a small volume of cells onto a MHA plate. The MHA plate was incubated overnight at 37° C. A single colony was subsequently used to inoculate MHB+10 μg/mL kanamycin to obtain a bacterial broth suspension. The MHB broth suspension was grown at 37° C. on a rotary shaking incubator (100 rpm) for 12 hours. The bacterial cell concentration was adjusted to ˜5×10^5 CFU/mL in MHB using OD at 595 nm.
Cells were treated with 0.03 μg/mL and 0.06 μg/mL norfloxacin for 30 minutes at 37° C. Then, 100 μM of the compounds were added. The cells were incubated for 3.5 hours at 37° C. 200 μL aliquots were removed and read by a flow cytometer to detect RecA production and/or shutdown. The cells were incubated for an additional 18 hours at 37° C. to assess overall toxicity.

[5] = system: A. baumannii ATCC BAA-1797; assay: MIC on A. baumannii ATCC BAA-1797; conditions: Acinetobacter baumannii
Description: A. baumannii: A. baumannii ATCC BAA-1797 was grown from a glycerol stock by placing a small volume of cells onto a MHA plate. The MHA plate was incubated overnight at 37° C. A single colony was used to inoculate MHB to obtain a bacterial broth suspension. The MHB broth suspension was grown at 37° C. on a rotary shaking incubator (100 rpm) for 12 hours. The bacterial cell concentration was adjusted to ˜5×10^5 CFU/mL in MHB or MHB+10%, 20% or 40% FBS using OD at 595 nm. 500 μL aliquots of the adjusted bacterial cell suspension were placed into borosilicate glass tubes. The cell suspensions were treated with a compound of interest, and the treatments were serially diluted two-fold. The culture tubes were incubated for 18 hours at 37° C. Efficacy was either assessed visually or by adding 10% v/v MTT (5 mg/mL stock) after the 18 hour incubation period. The cell suspensions were subsequently incubated for 10 minutes to allow the MTT reagent to carry out the colorimetric reaction. The OD was read at 595 nm.

[6] = system: UmuC (error-prone polymerase); assay: UmuC gene expression by rtPCR in S. aureus; conditions: sub-inhibitory norfloxacin
From the text: RecA and error-prone polymerase subunit UmuC transcripts were quantitatively measured using rtPCR in S. aureus. S. aureus was challenged with sub-inhibitory concentrations of DNA-damaging norfloxacin.

[7] = system: A. baumannii ATCC 15151; assay: DNA degradation (agarose gel), drug-sensitive strain; conditions: 1.5% H2O2, 10 μg/mL ciprofloxacin, 100 μM Compound 25; 3 hours
[8] = system: E. coli pUC18; assay: Nitrocefin β-lactamase assay (outer membrane disruption); conditions: 10 μM melittin; 10 μg/mL PME; 6, 12, 24 μM Compound 25 and 26; 100 μM Compound 27; 50 μM Compound 15; 30 minutes
Description: E. coli pUC18 was grown from a glycerol stock by placing a small volume of cells onto a MHA plate. The MHA plate was incubated overnight at 37° C. A single colony was subsequently used to inoculate MHB+100 μg/mL ampicillin to obtain a bacterial broth suspension. The MHB broth suspension was grown at 37° C. on a rotary shaking incubator (100 rpm) for 12 hours. The cells were washed 3× by centrifuging and washing with 1 mL medium 200. The washed bacterial cell concentration was adjusted to ˜1×10^7 CFU/mL in medium 200 using OD at 595 nm. The cells were treated cells with 10 μM melittin; 6, 12, 24 μM Compound 25; 6 μM, 12 μM, 24 μM Compound 26; 100 μM Compound 27; 50 μM Compound 15; and 10 μg/mL PME. The cells were incubated at 37° C. for 30 minutes; added 50 μM nitrocefin and incubated 10 minutes at 37° C.
pUC18 E. coli carry an ampicillin resistance gene and produce β-lactamase.

[9] = system: E. coli pNMT41; assay: 6-chloro-4-methyl-umbelliferyl-β-D-glucuronide assay for beta-glucuronidase (inner membrane disruption); conditions: 10 μg/mL PME
Description: E. coli pNMT 41 was grown from a glycerol stock by placing a small volume of cells onto a MHA plate. The MHA plate was incubated overnight at 37° C. A single colony was subsequently used to inoculate MHB+100 μg/mL ampicillin to obtain a bacterial broth suspension. The MHB broth suspension was grown at 37° C. on a rotary shaking incubator (100 rpm) for 12 hours. The bacterial cell concentration was adjusted to ˜1×10^7 CFU/mL in MHB using OD at 595 nm. The cells were washed 3× by spinning by centrifuge and washing with 500 μL medium 200. The cells were resuspended in 7 mL medium 200. The cells were treated with 10 μM melittin, 6, 12, 24, and 100 μM Compound 25, and 10 μg/mL PME. The cells were incubated at 37° C. for 30 minutes. 1 μM umbelliferyl was added, and the cells were incubated further for 10 minutes at 37° C.
The cells were then incubated at 37° C. for 45 minutes. 1 μM umbelliferyl was added, and the cells were incubated further for 10 minutes at 37° C.

[10] = system: A. baumannii ATCC BAA-1797; assay: Colony counts of A. baumannii ATCC BAA-1797 treated with 4xMIC for 16 hours; conditions: 1 μg/mL PME, 1 mM PAO, compounds at 4xMIC
[11] = 0 h, read-out: Initial MIC Day 0
[12] = 10 μM melittin, 6, 12, 24, 100 μM Compound 25, 30 minutes

N#CC(C#N)=NNc1cccc(Cl)c1 [CCCP, reference compound]
cell membrane depolarization [1]: depolarized the cell membrane

O=C(O)c1cn(C2CC2)c2cc(N3CCNCC3)c(F)cc2c1=O [Ciprofloxacin, reference compound]
cell morphology and growth ([2]; 125 ng/mL ciprofloxacin): largely elongated in morphology and growth inhibition was observed
cell morphology and growth ([2]; single agent: 50 ng/mL ciprofloxacin or […] Compound 25): slightly elongated and some growth inhibition was observed

Brc1ccc(/N=N/c2c[nH]c3ccccc23)cc1 [Compound 47, (E)-3-((4-bromophenyl)diazenyl)-1H-indole]
MIC [3, 11]: 4 µM
MIC ([3]; read-out: Final MIC Day 32): 4 µM
killing of E. coli [4]: killed E. coli
SOS response (RecA-GFP induction) [4]: inhibited the SOS response

Clc1ccc(Oc2c(-c3ccc(Cl)cc3)[nH]c3ccc(Cl)cc23)cc1 [Compound 50, 5-chloro-3-(4-chlorophenoxy)-2-(4-chlorophenyl)-1H-indole]
MIC [3, 11]: 0.25 to 0.5 µM
MIC ([3]; read-out: Final MIC Day 32): > 32 µM

COc1ccc(/N=N/c2c(-c3ccc(OC)cc3)[nH]c3ccccc23)cc1 [Compound 46, (E)-2-(4-methoxyphenyl)-3-((4-methoxyphenyl)diazenyl)-1H-indole]
MIC ([5]; ATCCBAA1797, 18 h, read-out: MIC in the presence of 40% FBS, A. baumannii ATCC BAA-1797, 40% FBS): > 100 µM
MIC ([5]; ATCCBAA1797, A. baumannii ATCC BAA-1797, absence of serum, read-out: MIC in the absence of serum): > 100 µM
MIC [3, 11]: 1 to 2 µM
MIC ([3]; read-out: Final MIC Day 32): 1 to 2 µM
UmuC (error-prone polymerase) gene expression [6]: transcriptional inhibition

OO [Compound H2O2, hydrogen peroxide, reference compound]
DNA degradation [7]: degraded DNA completely

CC[C@H](C)[C@H](NC(=O)CN)C(=O)NCC(=O)N[C@@H](C)C(=O)N[C@H](C(=O)N[C@@H](CC(C)C)C(=O)N[C@@H](CCCCN)C(=O)N[C@H](C(=O)N[C@@H](CC(C)C)C(=O)N[C@H](C(=O)N[C@H](C(=O)NCC(=O)N[C@@H](CC(C)C)C(=O)N1CCC[C@H]1C(=O)N[C@@H](C)C(=O)N[C@@H](CC(C)C)C(=O)N[C@H](C(=O)N[C@@H](CO)C(=O)N[C@@H](Cc1c[nH]c2ccccc12)C(=O)N[C@H](C(=O)N[C@@H](CCCCN)C(=O)N[C@@H](CCCNC(=N)N)C(=O)N[C@@H](CCCCN)C(=O)N[C@@H](CCCNC(=N)N)C(=O)N[C@@H](CCC(N)=O)C(=O)N[C@@H](CCC(N)=O)C(N)=O)[C@@H](C)CC)[C@@H](C)CC)[C@@H](C)O)[C@@H](C)O)C(C)C)C(C)C [Melittin, melittin]
outer membrane disruption (β-lactamase leakage, nitrocefin colour) [8]: high concentration of β-lactamase in the supernatant
inner membrane disruption (GUS fluorescence) [9, 12]: disrupt inner membrane

Clc1ccc(/N=N/c2c[nH]c3ccccc23)cc1 [Compound 48, (E)-3-((4-chlorophenyl)diazenyl)-1H-indole]
MIC [3, 11]: 8 µM
MIC ([3]; read-out: Final MIC Day 32): 8 µM

polymyxin E [PME]
cell viability after 16 hours of treatment [10]: cells were still viable
outer membrane disruption (β-lactamase leakage, nitrocefin colour) [8]: high concentration of β-lactamase in the supernatant
inner membrane disruption (GUS fluorescence) [9, 12]: disrupt inner membrane
inner membrane disruption (GUS fluorescence) ([9]; separate experiment, 12.5 μM Compound 14, 45 minutes): disrupts inner membrane

Clc1ccc(Oc2c(-c3ccc(Cl)cc3)[nH]c3ccccc23)cc1 [Compound 49, 3-(4-chlorophenoxy)-2-(4-chlorophenyl)-1H-indole]
MIC [3, 11]: 2 µM
MIC ([3]; read-out: Final MIC Day 32): 1 µM
killing of E. coli [4]: killed E. coli
SOS response (RecA-GFP induction) [4]: inhibited the SOS response

Cc1onc(-c2ccccc2)c1C(=O)N[C@@H]1C(=O)N2[C@@H]1SC(C)(C)[C@@H]2C(=O)O [Oxacillin, reference compound]
development of resistance (increase in MIC) ([3]; 32 days of sub-inhibitory exposure): Dramatic resistance
MIC [3, 11]: 0.25 µg/mL
MIC ([3]; read-out: Final MIC Day 32): > 200 µg/mL

— patent US12655101B2, “Small molecules with antibacterial activity” (NEW MEXICO TECH UNIVERSITY RESEARCH PARK CORPORATION, priority 2021, dated 2026)
